Data: ChEMBL document CHEMBL1201862, “PubChem BioAssay data set” (2004)
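Dose response: 5 concentrations. Exposure: 48 h. Format: 96-well plates. Endpoint: linear interpolation; highest concentration if not reached. GI50 marks 50% less growth.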 Active and inactive are the calls of the source. No stated cut-off is given here; in the data, active = GI50 up to about 1.1 µM and inactive = higher.

Legend:
Test in all cases: NCI tumour cell line growth inhibition, 48 h
[1] = system: OVCAR-8
[2] = system: A498
[3] = system: SK-OV-3
[4] = system: KM12
[5] = system: SF-539
[6] = system: SK-MEL-28
[7] = system: UO-31
[8] = system: Malme-3M
[9] = system: MOLT-4
[10] = system: EKVX
[11] = system: SNB-19
[12] = system: RXF 393
[13] = system: 786-0
[14] = system: RPMI-8226
[15] = system: HCT-15
[16] = system: K562
[17] = system: XF498
[18] = system: LOX IMVI
[19] = system: SF-295
[20] = system: SK-MEL-2
[21] = system: A549
[22] = system: COLO 205
[23] = system: RXF 631
[24] = system: HL-60
[25] = system: DMS-273
[26] = system: HT-29
[27] = system: UACC-62
[28] = system: SK-MEL-5
[29] = system: OVCAR-4
[30] = system: IGROV-1
[31] = system: DMS-114
[32] = system: UACC-257
[33] = system: M19-MEL
[34] = system: TK-10
[35] = system: DLD-1
[36] = system: HOP-62
[37] = system: OVCAR-3
[38] = system: SN12C
[39] = system: SF-268
[40] = system: NCI-H460
[41] = system: SNB-75
[42] = system: LXFL 529
[43] = system: HCT-116
[44] = system: SW-620
[45] = system: HOP-92
[46] = system: M14
[47] = system: CCRF-CEM
[48] = system: U-251
[49] = system: HCC 2998
[50] = system: NCI-H522
[51] = system: NCI-H23
[52] = system: CAKI-1
[53] = system: HOP-18
[54] = system: KM-20L2
[55] = system: NCI-H226
[56] = system: ACHN
[57] = system: OVCAR-5
[58] = system: SNB-78
[59] = system: SR

## COC(=O)[C@H]1CC(=O)C=C2CCCC21 (stereo not given in full)
[1]
  GI50: > 100 µM (inactive)
[2]
  GI50: > 100 µM (inactive)
[3]
  GI50: > 100 µM (inactive)
[4]
  GI50: > 100 µM (inactive)
[5]
  GI50: > 100 µM (inactive)
[6]
  GI50: > 100 µM (inactive)
[7]
  GI50: > 100 µM (inactive)
[8]
  GI50: > 100 µM (inactive)
[9]
  GI50: > 100 µM (inactive)
[10]
  GI50: > 100 µM (inactive)
[11]
  GI50: > 100 µM (inactive)
[12]
  GI50: > 100 µM (inactive)
[13]
  GI50: > 100 µM (inactive)
[14]
  GI50: > 100 µM (inactive)
[15]
  GI50: > 100 µM
[16]
  GI50: > 100 µM (inactive)
[17]
  GI50: > 100 µM (inactive)
[18]
  GI50: > 100 µM (inactive)
[19]
  GI50: > 100 µM (inactive)
[20]
  GI50: > 100 µM (inactive)
[21]
  GI50: > 100 µM (inactive)
[22]
  GI50: > 100 µM (inactive)
[23]
  GI50: > 100 µM (inactive)
[24]
  GI50: > 100 µM (inactive)
[25]
  GI50: > 100 µM (inactive)
[26]
  GI50: > 100 µM (inactive)
[27]
  GI50: > 100 µM (inactive)
[28]
  GI50: > 100 µM (inactive)
[29]
  GI50: > 100 µM (inactive)
[30]
  GI50: > 100 µM (inactive)
[31]
  GI50: > 100 µM (inactive)
[32]
  GI50: > 100 µM (inactive)
[33]
  GI50: > 100 µM (inactive)
[34]
  GI50: > 100 µM (inactive)
[35]
  GI50: > 100 µM (inactive)
[36]
  GI50: > 100 µM (inactive)
[37]
  GI50: > 100 µM (inactive)
[38]
  GI50: > 100 µM (inactive)
[39]
  GI50: > 100 µM (inactive)
[40]
  GI50: > 100 µM (inactive)
[41]
  GI50: > 100 µM (inactive)
[42]
  GI50: > 100 µM (inactive)
[43]
  GI50: > 100 µM (inactive)
[44]
  GI50: > 100 µM (inactive)
[45]
  GI50: > 100 µM (inactive)
[46]
  GI50: > 100 µM (inactive)
[47]
  GI50: > 100 µM (inactive)
[48]
  GI50: > 100 µM (inactive)
[49]
  GI50: > 100 µM (inactive)
[50]
  GI50: > 100 µM (inactive)
[51]
  GI50: > 100 µM (inactive)
[52]
  GI50: > 100 µM (inactive)

## O=C(O)C12CCCCC1CCCC2 (stereo not given)
[1]
  GI50: > 100 µM (inactive)
[53]
  GI50: > 100 µM (inactive)
[2]
  GI50: > 100 µM (inactive)
[3]
  GI50: > 100 µM (inactive)
[4]
  GI50: > 100 µM (inactive)
[5]
  GI50: > 100 µM (inactive)
[6]
  GI50: > 100 µM (inactive)
[9]
  GI50: > 100 µM (inactive)
[10]
  GI50: > 100 µM (inactive)
[54]
  GI50: > 100 µM (inactive)
[11]
  GI50: > 100 µM (inactive)
[14]
  GI50: > 100 µM (inactive)
[15]
  GI50: > 100 µM
[16]
  GI50: > 100 µM (inactive)
[17]
  GI50: > 100 µM (inactive)
[18]
  GI50: > 100 µM (inactive)
[19]
  GI50: > 100 µM (inactive)
[21]
  GI50: > 100 µM (inactive)
[22]
  GI50: > 100 µM (inactive)
[55]
  GI50: > 100 µM (inactive)
[24]
  GI50: > 100 µM (inactive)
[25]
  GI50: > 100 µM (inactive)
[26]
  GI50: > 100 µM (inactive)
[27]
  GI50: > 100 µM (inactive)
[28]
  GI50: > 100 µM (inactive)
[29]
  GI50: > 100 µM (inactive)
[30]
  GI50: > 100 µM (inactive)
[31]
  GI50: > 100 µM (inactive)
[33]
  GI50: > 100 µM (inactive)
[34]
  GI50: > 100 µM (inactive)
[56]
  GI50: > 100 µM (inactive)
[35]
  GI50: > 100 µM (inactive)
[36]
  GI50: > 100 µM (inactive)
[37]
  GI50: > 100 µM (inactive)
[38]
  GI50: > 100 µM (inactive)
[39]
  GI50: > 100 µM (inactive)
[57]
  GI50: > 100 µM (inactive)
[40]
  GI50: > 100 µM (inactive)
[41]
  GI50: 98.2 µM (inactive)
[42]
  GI50: > 100 µM (inactive)
[43]
  GI50: > 100 µM (inactive)
[44]
  GI50: > 100 µM (inactive)
[45]
  GI50: > 100 µM (inactive)
[46]
  GI50: > 100 µM (inactive)
[47]
  GI50: > 100 µM (inactive)
[48]
  GI50: > 100 µM (inactive)
[49]
  GI50: > 100 µM (inactive)
[50]
  GI50: > 100 µM (inactive)
[51]
  GI50: > 100 µM (inactive)
[52]
  GI50: > 100 µM (inactive)

## C/C(=N\NC(=S)N1CCCCCC1)c1nccnc1C
[1]
  GI50: < 0.01 µM (active)
[53]
  GI50: 0.617 µM (active)
[2]
  GI50: 1.58 µM (inactive)
[4]
  GI50: 0.0887 µM (active)
[5]
  GI50: 0.242 µM (active)
[6]
  GI50: 0.106 µM (active)
[8]
  GI50: 11.8 µM (inactive)
[9]
  GI50: 0.0658 µM (active)
[10]
  GI50: 0.0188 µM (active)
[54]
  GI50: < 0.01 µM (active)
[12]
  GI50: 0.231 µM (active)
[13]
  GI50: 5.14 µM (inactive)
[14]
  GI50: 0.159 µM (active)
[15]
  GI50: < 0.01 µM
[16]
  GI50: 0.055 µM (active)
[17]
  GI50: 1.43 µM (inactive)
[18]
  GI50: < 0.01 µM (active)
[19]
  GI50: 0.124 µM (active)
[58]
  GI50: 0.885 µM (active)
[20]
  GI50: 12.8 µM (inactive)
[21]
  GI50: 0.0331 µM (active)
[22]
  GI50: < 0.01 µM (active)
[24]
  GI50: 0.0508 µM (active)
[25]
  GI50: < 0.01 µM (active)
[26]
  GI50: 0.0719 µM (active)
[27]
  GI50: < 0.01 µM (active)
[28]
  GI50: 0.0292 µM (active)
[29]
  GI50: 0.134 µM (active)
[30]
  GI50: < 0.01 µM (active)
[31]
  GI50: < 0.01 µM (active)
[32]
  GI50: < 0.01 µM (active)
[33]
  GI50: 0.174 µM (active)
[34]
  GI50: 0.56 µM (active)
[56]
  GI50: 0.219 µM (active)
[35]
  GI50: 1.42 µM (inactive)
[36]
  GI50: 35.3 µM (inactive)
[37]
  GI50: < 0.01 µM (active)
[38]
  GI50: 0.285 µM (active)
[39]
  GI50: 0.176 µM (active)
[57]
  GI50: 0.169 µM (active)
[41]
  GI50: 0.605 µM (active)
[42]
  GI50: < 0.01 µM (active)
[44]
  GI50: < 0.01 µM (active)
[46]
  GI50: < 0.01 µM (active)
[47]
  GI50: 0.0607 µM (active)
[48]
  GI50: 0.2 µM (active)
[49]
  GI50: 7.36 µM (inactive)
[51]
  GI50: < 0.01 µM (active)
[52]
  GI50: 0.155 µM (active)

## CCOc1ccc(N2C(=O)C3c4[nH]c5ccccc5c4C4CCC(C(C)(C)C)CC4C3C2=O)cc1 (stereo not given)
[1]
  GI50: 97.1 µM (inactive)
[53]
  GI50: > 100 µM (inactive)
[2]
  GI50: > 100 µM (inactive)
[3]
  GI50: > 100 µM (inactive)
[5]
  GI50: > 100 µM (inactive)
[6]
  GI50: > 100 µM (inactive)
[7]
  GI50: 69.2 µM (inactive)
[8]
  GI50: > 100 µM (inactive)
[9]
  GI50: > 100 µM (inactive)
[10]
  GI50: > 100 µM (inactive)
[54]
  GI50: 77.8 µM (inactive)
[11]
  GI50: > 100 µM (inactive)
[12]
  GI50: 21.8 µM (inactive)
[13]
  GI50: 50.6 µM (inactive)
[14]
  GI50: > 100 µM (inactive)
[15]
  GI50: > 100 µM
[16]
  GI50: > 100 µM (inactive)
[17]
  GI50: > 100 µM (inactive)
[59]
  GI50: 42.8 µM (inactive)
[19]
  GI50: > 100 µM (inactive)
[58]
  GI50: 90.2 µM (inactive)
[21]
  GI50: 62.4 µM (inactive)
[22]
  GI50: 36.1 µM (inactive)
[55]
  GI50: 56.5 µM (inactive)
[24]
  GI50: 44.9 µM (inactive)
[25]
  GI50: > 100 µM (inactive)
[26]
  GI50: 32.1 µM (inactive)
[27]
  GI50: > 100 µM (inactive)
[28]
  GI50: > 100 µM (inactive)
[29]
  GI50: > 100 µM (inactive)
[30]
  GI50: > 100 µM (inactive)
[31]
  GI50: 50 µM (inactive)
[32]
  GI50: > 100 µM (inactive)
[56]
  GI50: 57.5 µM (inactive)
[35]
  GI50: 88.9 µM (inactive)
[36]
  GI50: > 100 µM (inactive)
[38]
  GI50: 51.3 µM (inactive)
[39]
  GI50: > 100 µM (inactive)
[41]
  GI50: > 100 µM (inactive)
[42]
  GI50: > 100 µM (inactive)
[43]
  GI50: 49.2 µM (inactive)
[44]
  GI50: > 100 µM (inactive)
[45]
  GI50: > 100 µM (inactive)
[46]
  GI50: > 100 µM (inactive)
[47]
  GI50: 10.3 µM (inactive)
[48]
  GI50: > 100 µM (inactive)
[49]
  GI50: 28.8 µM (inactive)
[50]
  GI50: 66.7 µM (inactive)
[51]
  GI50: 82.8 µM (inactive)
